Our source for the growth inhibition and colonies formed values is US11198677B2, “Deoxyuridine triphosphatase inhibitors containing amino sulfonyl linkage” (University of Southern California, priority 2015, dated 2021).

Assay [1] has as its system colorectal (HCT116 and SW620) cell line models. Put plainly: MTS growth inhibition assay. It is filed as cell-based. The note with it: increasing concentrations between 0 and 100 μmol/L; both colorectal cancer cell lines evaluated. As for the experimental part:
The Cell Titer AQueous MTS assay (Promega) is carried out according to the manufacturers guidelines. […] The combination effect is determined by the combination index (CI) method utilizing Calcusyn software (Biosoft, Ferguson, Mo.). Fraction affected (FA) is calculated from the percent growth inhibition: FA=[…]. CI values <1, synergism; 1-1.2, additive and >1.2, antagonism.
Test compounds are evaluated for their antitumor activity in colorectal cancer cells using the MTS growth inhibition assay. HCT116 and SW620 cells are exposed to increasing concentrations of each agent for 72 hours and growth inhibition is directly compared to vehicle-treated controls. The NSCLC cell lines A549 and H1299 are exposed to increasing concentrations of each agent for 72 hours and growth inhibition is directly compared to vehicle-treated controls.
MTS growth inhibition assays are performed to evaluate the effectiveness of the test compounds alone and in combination with the fluoropyrimidine thymidylate synthase (TS) inhibitor 5-fluorouracil (5-FU) at inhibiting the growth of colorectal (HCT116 and SW620) cell line models. […] Simultaneous treatment with increasing concentrations of 5-FU and a test compound at fixed concentrations of 25 μmol/L is determined.
On the technique in general: Tetrazolium dyes change colour on reduction, which living cells bring about.

The subject of assay [2] is colorectal (HCT116), breast (MCF-7) and non-small cell lung (H1299, A549, H358 and H460) cell line models. Put plainly: Colony forming assay. It is filed as cell-based. The note with it: increasing concentrations between 0.5 and 2.5 μmol/L; all cell lines evaluated. As for the experimental part: Colony forming assay showing the ability of colon (SW620, HCT116), non-small cell lung (A549, H460, H1299 and H358) and breast (MCF7) cancer cells to survive and proliferate following transient 24 hour exposure to test compounds, FUdR and combinations are determined. Specifically, cells are seeded at densities between 50 and 100 cells/well in 24-well plates. Twenty-four hours later, cells are treated with increasing concentrations of a test compound, a fixed dose of FUdR and combinations of these. After 24 hours, drug is removed, cells are rinsed and allowed to outgrow for 10-14 days. At the conclusion of the outgrowth, cells are fixed in 60% ice cold methanol and stained with 0.1% crystal violet, scanned and counted. Data is presented as percentage of untreated controls (mean±SD). Fraction affected and combination indexes are calculated according to the method of Chou and Talalay where <1 is indicative of a synergistic drug interaction.
Colony forming assays are performed to evaluate the effectiveness of test compounds alone and in combination with the fluoropyrimidine thymidylate synthase (TS) inhibitor fluorodeoxyuridine (FUdR) at reducing cancer cell viability in colorectal (HCT116), breast (MCF-7) and non-small cell lung (H1299, A549, H358 and H460) cell line models. […]

As to `O=c1[nH]cc(F)c(=O)[nH]1` [Compound 5-FU, 5-fluorouracil], the growth inhibition entry in assay [1] is listed as “dose-dependent increases in growth inhibition”.
Take `O=c1[nH]c(=O)n([C@H]2C[C@H](O)[C@@H](CO)O2)cc1F` [FUdR, fluorodeoxyuridine]: the colonies formed entry in assay [2] is listed as “dose-dependent decreases in colonies formed”.
